Paper PMC8922279, “Identification of β-Lactams Active against Mycobacterium tuberculosis by a Consortium of Pharmaceutical Companies and Academic Institutions” (ACS Infectious Diseases, 2022)
Like-named read-outs stand apart in the source and are kept apart here.

How the values were obtained:
Mtb H37Rv [1] = experiment: MIC90 against replicating (R) Mtb H37Rv, with or without clavulanate; type: cell-based, Mycobacterium tuberculosis; conditions: Table S4; for Mtb H37Rv R + CLAV (MIC90): clavulanate 4 μg/mL; for Mtb H37Rv R (MIC90): no clavulanate
Mtb H37Rv [2] = experiment: MIC90 against nonreplicating (NR, 4-stress) Mtb H37Rv, with or without clavulanate; type: cell-based, Mycobacterium tuberculosis; conditions: 4-stress nonreplicating, Table S4; for Mtb H37Rv NR + CLAV (MIC90): clavulanate 4 μg/mL; for Mtb H37Rv NR (MIC90): no clavulanate
E. coli = experiment: Microbial spectrum, E. coli; type: cell-based, Escherichia coli; conditions: clavulanate 4 μg/mL; Table S4
P. aeruginosa = experiment: Microbial spectrum, P. aeruginosa; type: cell-based, Pseudomonas aeruginosa; conditions: clavulanate 4 μg/mL; Table S4
S. aureus = experiment: Microbial spectrum, S. aureus; type: cell-based, Staphylococcus aureus; conditions: clavulanate 4 μg/mL; Table S4
C. albicans = experiment: Microbial spectrum, C. albicans; type: cell-based, Candida albicans; conditions: no clavulanate; Table S4
[3] = In vitro plasma stability, human plasma; conditions: 2 μM, 37 °C, time point 120 min
[4] = In vitro plasma stability, SD rat plasma; conditions: 2 μM, 37 °C, time point 120 min
[5] = In vitro plasma stability, CD-1 mouse plasma; conditions: 2 μM, 37 °C, time point 120 min
[6] = In vitro plasma stability, beagle dog plasma; conditions: 2 μM, 37 °C, time point 120 min
[7] = Mouse PK in uninfected CD-1 mice (i.v. and p.o.)
Caco-2 cells [8] = experiment: Caco-2 permeability / efflux transporter substrate; conditions: for Caco-2 Mean Papp A to B / Caco-2 Mean Papp B to A: 3 μM, pH 7.4, 120 min
[9] = In vitro plasma stability, cynomolgus monkey plasma; conditions: 2 μM, 37 °C, time point 120 min
plasma proteins [10] = experiment: Plasma protein binding (equilibrium dialysis), human; conditions: 2 μM
plasma proteins [11] = experiment: Plasma protein binding (equilibrium dialysis), SD rat; conditions: 2 μM
[12] = Stability in fasted simulated intestinal fluid (FaSSIF); conditions: 10 μM, pH 6.5, room temperature
plasma proteins [13] = experiment: Plasma protein binding (equilibrium dialysis), beagle dog; conditions: 2 μM
plasma proteins [14] = experiment: Plasma protein binding (equilibrium dialysis), CD-1 mouse; conditions: 2 μM
plasma proteins [15] = experiment: Plasma protein binding (equilibrium dialysis), cynomolgus monkey; conditions: 2 μM
HepG2 cells = experiment: Cytotoxicity against HepG2 cells (CellTiter-Glo); type: cell-based, human; conditions: Table S4
Description: Compounds were tested for cytotoxicity against HepG2 cells as previously described.[48],[69],[70] Briefly, cells were exposed to compounds for 48–72 h, and viability was measured using CellTiter-Glo (Promega).

wild-type Mtb H37Rv = type: in vivo, 129sv DHP-1 knockout mice; conditions: for Log10 CFU per mouse (lungs), Mean: 50 mg/kg sc bid + clavulanate 100 mg/kg po bid, days 9-15, lungs day 16, untreated day 16 mean 9.1
Caco-2 cells [16] = test system: Caco-2 cells
[17] = 300 mg/kg sc, uninfected DHP-1 mice
[18] = female, 129sv DHP-1 knockout, mouse, in vivo
in vivo [19] = conditions: female, CD-1, mouse
in vivo [20] = conditions: DHP-1 knockout, mouse, sc, 300 mg/kg
in vivo [21] = conditions: female, 129sv DHP-1 knockout, mouse, sc, 50 mg/kg
physchem [22] = conditions: simulated gi fluid, pH 6.5, FaSSIF Stability, % remaining
physchem [23] = conditions: simulated gi fluid, pH 1.2
in vitro [24] = conditions: male, CD-1, mouse, plasma, Plasma stability % Remaining
in vitro [25] = conditions: SD, rat, plasma, Plasma stability % Remaining
in vitro [26] = conditions: beagle, dog, plasma
in vitro [27] = conditions: monkey, plasma
in vitro [28] = conditions: human, plasma, Plasma stability % Remaining
in vitro [29] = conditions: human
in vitro [30] = conditions: cynomolgus monkey, plasma, pH 7.4
in vitro [31] = conditions: beagle, dog, plasma, pH 7.4
in vitro [32] = conditions: CD-1, mouse, plasma, pH 7.4, % bound to plasma
in vitro [33] = conditions: SD, rat, plasma, pH 7.4, % bound to plasma
in vitro [34] = conditions: human, plasma, pH 7.4, % bound to plasma
[35] = Stability in simulated gastric fluid (SGF); conditions: 10 μM, pH 1.2, room temperature

## O=C(O)C1=C(CSc2cccc[n+]2[O-])CS[C@@H]2[C@H](NC(=O)C(F)c3ccccc3)C(=O)N12 (stereo partly shown) [TBBL-0000004]
Mtb H37Rv [1]
  Mtb H37Rv R + CLAV (MIC90): 1.5 µM
  Mtb H37Rv R (MIC90): 1.2 µM
Mtb H37Rv [2]
  Mtb H37Rv NR + CLAV (MIC90): 2.3 µM
  Mtb H37Rv NR (MIC90): 1.7 µM
E. coli
  E.coli R + CLAV (MIC90): > 100 µM
P. aeruginosa
  P.aeruginosa R + CLAV (MIC90): > 100 µM
S. aureus
  S.aureus R + CLAV (MIC90): 1.4 µM
C. albicans
  C.albicans R (MIC90): > 100 µM
[3]
  Plasma stability % Remaining, Human: 81.0%
[4]
  Plasma stability % Remaining, Rat: 71.0%
[5]
  Plasma stability % Remaining, Mouse: 84.1%
[6]
  Plasma stability % Remaining, Dog: 64.1%
[7]; i.v. dosing (5 mg/kg)
  AUC[0-5h]: 5075 ng·h/mL
  Vd: 1.02 L/kg
  clearance: 16.4 mL/min/kg
  half-life: 32.4 min
  k el: 0.96 h⁻¹
Caco-2 cells [8]
  Caco-2 Mean Papp A to B: < 0.12 10-6 cm/s
  Caco-2 Mean Papp B to A: < 0.11 10-6 cm/s
Caco-2 cells [8]; Caco-2
  Caco-2 Mean Recovery % A to B: < 98.09%
  Caco-2 Mean Recovery % B to A: < 112.70%
  Caco-2 Rank Papp: Low
[9]
  Plasma stability % Remaining, Monkey: 103.9%
Plasma proteins [10]
  % bound to plasma, Human: 74.1%
Plasma proteins [11]
  % bound to plasma, SD Rat: 62.0%
[12]
  FaSSIF Stability, % remaining, 6h: 88.58%
  FaSSIF Stability, % remaining, 24h: 94.96%
Plasma proteins [13]
  % bound to plasma, Beagle Dog: 59.2%
Plasma proteins [14]
  % bound to plasma, CD-1 Mouse: 65.5%
Plasma proteins [15]
  % bound to plasma, Cynomolgus Monkey: 78.2%

## O=C(CCCC(NC(=O)c1ccc(Cl)cc1Cl)C(=O)O)N[C@@H]1C(=O)N2C(C(=O)O)=C(CSc3cccc[n+]3[O-])CS[C@H]12 (stereo partly shown) [TBBL-0000552]
Mtb H37Rv [1]
  Mtb H37Rv R + CLAV (MIC90): 2.9 µM
  Mtb H37Rv R (MIC90): 2.8 µM
Mtb H37Rv [2]
  Mtb H37Rv NR + CLAV (MIC90): 2.1 µM
  Mtb H37Rv NR (MIC90): 1.9 µM
E. coli
  E.coli R + CLAV (MIC90): 92.6 µM
P. aeruginosa
  P.aeruginosa R + CLAV (MIC90): > 100 µM
S. aureus
  S.aureus R + CLAV (MIC90): > 100 µM
C. albicans
  C.albicans R (MIC90): > 100 µM
HepG2 cells
  HepG2 LD50: 74.3 µM
wild-type Mtb H37Rv
  Log10 CFU per mouse (lungs), Mean: 9.4 Log10 CFU
Caco-2 cells [16]
  Caco-2 Rank Papp: Low
[17]
  Tlast: 4.0 h
[18]
  Tlast: 3.0 h
In vivo [19]; iv, 5 mg/kg
  AUC(0-t): 7570 ng·h/mL
  Vd: 0.74 L/kg
  clearance: 11 mL/min/kg
  half-life: 46.8 min
  k el: 0.000247 s⁻¹
In vivo [19]; po, 25 mg/kg
  AUC(0-t): 42 ng·h/mL
  bioavailability: 0.11%
In vivo [20]
  AUC(0-t): 61900 ± 24900 ng·h/mL
  Cmax: 29900 ± 11000 ng/mL
  Tmax: 60 to 120 min
In vivo [21]
  AUC(0-t): 3660 ng·h/mL
  Cmax: 6190 ng/mL
  Tmax: 30 min
Physchem [22]; 6h
  remaining at 6 h, 10 μM: 111%
Physchem [22]; 24h
  remaining at 24 h, 10 μM: 106%
Physchem [23]
  remaining at 1 h, 10 μM: 105%
  remaining at 24 h, 10 μM: 61.5%
In vitro [24]
  remaining at 2 h, 2 μM: 89.4%
In vitro [25]
  remaining at 2 h, 2 μM: 77.8%
In vitro [26]
  remaining at 2 h, 2 μM: 77.9%
In vitro [27]
  remaining at 2 h, 2 μM: 119%
In vitro [28]
  remaining at 2 h, 2 μM: 78.6%
In vitro [29]; Caco-2, pH 7.4
  Papp A→B at 120 min, 3 μM: < 0.43 ×10⁻⁶ cm/s
  Papp B→A at 120 min, 3 μM: 0.38 ×10⁻⁶ cm/s
In vitro [29]; Caco-2, pH 7.4, Caco-2 Mean Recovery % A to B
  recovery at 120 min, 3 μM: < 106%
In vitro [29]; Caco-2, pH 7.4, Caco-2 Mean Recovery % B to A
  recovery at 120 min, 3 μM: 123%
In vitro [30]
  fraction unbound at 4 h, 2 μM: 0.198
In vitro [31]
  fraction unbound at 4 h, 2 μM: 0.417
In vitro [32]
  fraction unbound at 4 h, 2 μM: 0.439
In vitro [33]
  fraction unbound at 4 h, 2 μM: 0.109
In vitro [34]
  fraction unbound at 4 h, 2 μM: 0.143

## CCc1nnc(SCC2=C(C(=O)O)N3C(=O)[C@@H](NC(=O)Cc4ccc(C5=NCCN5)cc4)[C@H]3SC2)s1 [TBBL-0000310]
Mtb H37Rv [1]
  Mtb H37Rv R + CLAV (MIC90): 0.5 µM
  Mtb H37Rv R (MIC90): 16.4 µM
Mtb H37Rv [2]
  Mtb H37Rv NR + CLAV (MIC90): 92.2 µM
  Mtb H37Rv NR (MIC90): 90.4 µM
E. coli
  E.coli R + CLAV (MIC90): 49.9 µM
P. aeruginosa
  P.aeruginosa R + CLAV (MIC90): > 100 µM
S. aureus
  S.aureus R + CLAV (MIC90): 0.9 µM
C. albicans
  C.albicans R (MIC90): > 100 µM
[3]
  Plasma stability % Remaining, Human: 78.9%
[4]
  Plasma stability % Remaining, Rat: 80.0%
[35]; 1 h
  SGF Stability, % remaining, 1h: 86.27%
[35]; 24 h
  SGF Stability, % remaining, 24h: 0.61%
[5]
  Plasma stability % Remaining, Mouse: 82.2%
[6]
  Plasma stability % Remaining, Dog: 79.6%
[7]; i.v. dosing (5 mg/kg)
  AUC[0-5h]: 39113 ng·h/mL
  Vd: 0.09 L/kg
  clearance: 2.13 mL/min/kg
  half-life: 28.8 min
  k el: 1.45 h⁻¹
[7]; p.o. dosing (25 mg/kg)
  AUC[0-5h]: 614 ng·h/mL
  bioavailability: 0.34%
Caco-2 cells [8]
  Caco-2 Mean Papp A to B: 0.46 10-6 cm/s
  Caco-2 Mean Papp B to A: 0.43 10-6 cm/s
Caco-2 cells [8]; Caco-2
  Caco-2 Efflux Ratio: 0.94
  Caco-2 Mean Recovery % A to B: 99.13%
  Caco-2 Mean Recovery % B to A: 102.93%
  Caco-2 Rank Papp: Low
  Efflux Transporter Substrate: Poor or no
[9]
  Plasma stability % Remaining, Monkey: 110.3%
Plasma proteins [10]
  % bound to plasma, Human: 60.7%
Plasma proteins [11]
  % bound to plasma, SD Rat: 81.2%
[12]
  FaSSIF Stability, % remaining, 6h: 98.8%
  FaSSIF Stability, % remaining, 24h: 95.07%
Plasma proteins [13]
  % bound to plasma, Beagle Dog: 30.5%
Plasma proteins [14]
  % bound to plasma, CD-1 Mouse: 49.9%
Plasma proteins [15]
  % bound to plasma, Cynomolgus Monkey: 56.2%

## C=CC1=C(C(=O)O)N2C(=O)[C@@H](NC(=O)/C(=N\O)c3csc(N)n3)[C@H]2SC1 [Cefdinir, reference compound]
wild-type Mtb H37Rv
  Log10 CFU per mouse (lungs), Mean: 8.5 Log10 CFU
wild-type Mtb H37Rv; mouse, in vivo
  effect on lung CFU (in words): lower lung CFU count compared to untreated mice
[18]
  Tlast: 1.0 h
In vivo [21]
  AUC(0-t): 4630 ng·h/mL
  Cmax: 8730 ng/mL
  Tmax: 30 min

## NC(C(=O)N[C@@H]1C(=O)N2C(C(=O)O)=C(CSc3cccc[n+]3[O-])CS[C@H]12)c1ccc(O)cc1 (stereo partly shown) [TBBL-0000652]
wild-type Mtb H37Rv
  Log10 CFU per mouse (lungs), Mean: 8.6 Log10 CFU
wild-type Mtb H37Rv; mouse, in vivo
  reduction of lung CFU compared to untreated control mice: ~0.5 log10
[17]
  Comments (tolerability): Recovered at t= 8h
  Tlast: 2.0 to 4.0 h
[18]
  Tlast: 3.0 h
In vivo [20]
  AUC(0-t): 29400 ± 32900 ng·h/mL
  Cmax: 22200 ± 21700 ng/mL
  Tmax: 60 to 120 min
In vivo [21]
  AUC(0-t): 11500 ng·h/mL
  Cmax: 8320 ng/mL
  Tmax: 60 min
